Patent publication US20240360151A1 (SANOFI, priority 2023, published 2024)

Biological target: T1, NLRP3 inflammasome (Homo sapiens, UniProt Q96P20)
T1 construct: endogenous in cells; host or cells: THP-1 monocytic cells
Experiment: IL-1β secretion assay (NLRP3 IC50) in LPS-primed, nigericin-activated THP-1 cells, HTRF
Assay type: cell-based
Details: monocytic THP-1 cells; LPS 10 ng/mL 3 h priming, then compound + nigericin 10 μM 2 h; relative IC50, 10 concentrations, geometric mean
In short: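 IL-1β in supernatant read by HTRF after 2 h co-incubation of compound (0.1% DMSO, 10 concentrations, 1:3 series) with nigericin at 10 μM final, following 3 h LPS (10 ng/mL) priming of THP-1 monocytes at 37° C. Inhibition normalised to unactivated and no-compound controls; geometric-mean relative IC50 from 4-parameter logistic model.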

T1 sequence (Q96P20 whole entry): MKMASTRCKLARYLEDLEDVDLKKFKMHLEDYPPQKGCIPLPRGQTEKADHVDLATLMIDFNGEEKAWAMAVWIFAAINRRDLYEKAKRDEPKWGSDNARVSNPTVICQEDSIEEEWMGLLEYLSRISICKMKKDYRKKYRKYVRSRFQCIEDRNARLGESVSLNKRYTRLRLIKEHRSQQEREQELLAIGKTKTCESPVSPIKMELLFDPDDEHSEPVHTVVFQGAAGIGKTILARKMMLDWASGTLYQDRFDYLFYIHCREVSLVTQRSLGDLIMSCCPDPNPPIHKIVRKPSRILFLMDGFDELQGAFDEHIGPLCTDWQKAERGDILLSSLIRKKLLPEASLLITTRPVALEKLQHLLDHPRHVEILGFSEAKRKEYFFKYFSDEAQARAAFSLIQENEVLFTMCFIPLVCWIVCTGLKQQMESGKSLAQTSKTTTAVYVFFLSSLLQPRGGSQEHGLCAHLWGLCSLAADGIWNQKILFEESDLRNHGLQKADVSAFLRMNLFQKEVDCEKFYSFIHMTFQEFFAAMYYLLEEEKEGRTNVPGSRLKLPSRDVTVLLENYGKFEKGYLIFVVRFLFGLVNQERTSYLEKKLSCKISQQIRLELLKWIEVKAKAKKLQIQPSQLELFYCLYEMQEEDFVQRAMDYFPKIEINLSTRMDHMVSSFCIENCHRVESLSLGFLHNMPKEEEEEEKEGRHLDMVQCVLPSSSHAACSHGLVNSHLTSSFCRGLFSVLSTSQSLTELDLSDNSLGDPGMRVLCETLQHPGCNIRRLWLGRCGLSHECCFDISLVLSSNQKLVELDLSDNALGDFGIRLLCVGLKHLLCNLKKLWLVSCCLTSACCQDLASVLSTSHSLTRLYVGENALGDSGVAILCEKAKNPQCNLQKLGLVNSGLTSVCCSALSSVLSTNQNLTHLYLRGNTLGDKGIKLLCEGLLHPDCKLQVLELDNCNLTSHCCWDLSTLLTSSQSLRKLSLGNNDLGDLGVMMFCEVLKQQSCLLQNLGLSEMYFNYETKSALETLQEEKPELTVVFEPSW

SMILES | IC50
NC1CC2(CCN(c3ccc(-c4c(O)cc(Cl)cc4Cl)nn3)CC2)C1 [Example 32, 2-[6-(2-amino-7-azaspiro[3.5]nonan-7-yl)pyridazin-3-yl]-3,5-dichloro-phenol] | 3500 nM
Oc1cc(Cl)cc(Cl)c1-c1ccc(N2CCC3(CC2)CC(O)C3)nn1 [Example 37, 7-[6-(2,4-dichloro-6-hydroxy-phenyl)pyridazin-3-yl]-7-azaspiro[3.5]nonan-2-ol] | 893 nM
CN(C)C[C@@H]1CN(c2ccc(-c3c(O)cc(Cl)cc3Cl)nn2)CCO1 [Example 43, 3,5-dichloro-2-[6-[(2R)-2-[(dimethylamino)methyl]morpholin-4-yl]pyridazin-3-yl]phenol] | 603 nM
OC[C@@H]1CN(c2ccc(-c3c(O)cccc3F)nn2)CCO1 [Example 44, 3-fluoro-2-[6-[(2S)-2-(hydroxymethyl)morpholin-4-yl]pyridazin-3-yl]phenol] | 862 nM
CC(=O)NC1CC2(CCN(c3ccc(-c4c(O)cc(Cl)cc4Cl)nn3)CC2)C1 [Example 47, N-[7-[6-(2,4-dichloro-6-hydroxy-phenyl)pyridazin-3-yl]-7-azaspiro[3.5]nonan-2-yl]acetamide] | 1040 nM
Oc1cc(Cl)cc(Cl)c1-c1ccc(N2CCC(F)(F)CC2)nn1 [Example 49, 3,5-dichloro-2-[6-(4,4-difluoro-1-piperidyl)pyridazin-3-yl]phenol] | 672 nM
CN(C)C[C@H]1CCCN(c2ccc(-c3c(O)cc(Cl)cc3Cl)nn2)C1 [Example 50, 3,5-dichloro-2-[6-[(3R)-3-[(dimethylamino)methyl]-1-piperidyl]pyridazin-3-yl]phenol] | 549 nM
CN(C)C[C@@H]1CCCN(c2ccc(-c3c(O)cc(Cl)cc3Cl)nn2)C1 [Example 51, 3,5-dichloro-2-[6-[(3S)-3-[(dimethylamino)methyl]-1-piperidyl]pyridazin-3-yl]phenol] | 1050 nM
CCN[C@H]1CCCN(c2ccc(-c3c(C)cc(C)cc3O)nn2)C1 [Example 68, 2-[6-[(3S)-3-(ethylamino)-1-piperidyl]pyridazin-3-yl]-3,5-dimethyl-phenol] | 1220 nM
COC[C@H]1CCN(c2ccc(-c3c(C)cc(C)cc3O)nn2)C1 [Example 82, 2-[6-[(3S)-3-(methoxymethyl)pyrrolidin-1-yl]pyridazin-3-yl]-3,5-dimethyl-phenol] | 481 nM
Cc1cc(C)c(-c2ccc(N3CC4(CCC(O)CC4)C3)nn2)c(O)c1 [Example 83, 2-[6-(2-hydroxy-4,6-dimethyl-phenyl)pyridazin-3-yl]-2-azaspiro[3.5]nonan-7-ol] | 2790 nM
Cc1cc(C)c(-c2ccc(N3CC4(CCC(O)C4)C3)nn2)c(O)c1 (centres unmarked) [Example 84, 2-[6-(2-hydroxy-4,6-dimethyl-phenyl)pyridazin-3-yl]-2-azaspiro[3.4]octan-6-ol] | 1770 nM
COC[C@@H]1CCN(c2ccc(-c3c(C)cc(C)cc3O)nn2)C1 [Example 88, 2-[6-[(3R)-3-(methoxymethyl)pyrrolidin-1-yl]pyridazin-3-yl]-3,5-dimethyl-phenol] | 1150 nM
Cc1cc(C)c(-c2ccc(N3CCO[C@H](CN)C3)nn2)c(O)c1 [Example 89] | 614 nM
Cc1cc(C)c(-c2ccc(N3CC4(CCN4C)C3)nn2)c(O)c1 [Example 91, 3,5-dimethyl-2-[6-(1-methyl-1,6-diazaspiro[3.3]heptan-6-yl)pyridazin-3-yl]phenol] | 4930 nM
Cc1ccc(-c2ccc(N3CCO[C@H](CO)C3)nn2)c(O)c1 [Example 92, 2-[6-[(2S)-2-(hydroxymethyl)morpholin-4-yl]pyridazin-3-yl]-5-methyl-phenol] | 2200 nM
Cc1cc(N2CCO[C@H](CO)C2)nnc1-c1ccc(F)cc1O [Example 93, 5-fluoro-2-[6-[(2S)-2-(hydroxymethyl)morpholin-4-yl]-4-methyl-pyridazin-3-yl]phenol] | 879 nM
COc1cc(C)c(-c2ccc(N3CCO[C@H](CO)C3)nn2)c(O)c1 [Example 96, 2-[6-[(2S)-2-(hydroxymethyl)morpholin-4-yl]pyridazin-3-yl]-5-methoxy-3-methyl-phenol] | 124 nM
Cc1cc(N2CCO[C@H](CO)C2)nnc1-c1ccc(C(F)(F)F)cc1O [Example 97, 2-[6-[(2S)-2-(hydroxymethyl)morpholin-4-yl]-4-methyl-pyridazin-3-yl]-5-(trifluoromethyl)phenol] | 38 nM
Cc1ccc(O)c(-c2ccc(N3CCO[C@H](CO)C3)nn2)c1 [Example 102, 2-[6-[(2S)-2-(hydroxymethyl)morpholin-4-yl]pyridazin-3-yl]-4-methyl-phenol] | > 10000 nM
Cc1cc(C)c(-c2ccc(N3C4CCC3COC4)nn2)c(O)c1 [Example 120, 3,5-dimethyl-2-[6-(3-oxa-8-azabicyclo[3.2.1]octan-8-yl)pyridazin-3-yl]phenol] | 2520 nM

Second part, the compound after the results:

IC50 | SMILES
335 nM | CC(=O)NC[C@H]1CN(c2ccc(-c3c(C)cc(C)cc3O)nn2)CCO1 [Example 105, N-[[(2S)-4-[6-(2-hydroxy-4,6-dimethyl-phenyl)pyridazin-3-yl]morpholin-2-yl]methyl]acetamide]
174 nM | CC(=O)NC[C@@H]1CN(c2ccc(-c3c(C)cc(C)cc3O)nn2)CCO1 [Example 106, N-[[(2R)-4-[6-(2-hydroxy-4,6-dimethyl-phenyl)pyridazin-3-yl]morpholin-2-yl]methyl]acetamide]
385 nM | Cc1cc(C)c(-c2ccc(N3CCCCC(CO)C3)nn2)c(O)c1 (centres unmarked) [Example 107, 2-[6-[3-(hydroxymethyl)azepan-1-yl]pyridazin-3-yl]-3,5-dimethyl-phenol]
89 nM | Cc1cc(C)c(-c2cc(C)c(N3CCO[C@H](CO)C3)nn2)c(O)c1 [Example 109, 2-[6-[(2S)-2-(hydroxymethyl)morpholin-4-yl]-5-methyl-pyridazin-3-yl]-3,5-dimethyl-phenol]
3760 nM | Cc1ccc(-c2cc(C)c(N3CCO[C@H](CO)C3)nn2)c(O)c1 [Example 110, 2-[6-[(2S)-2-(hydroxymethyl)morpholin-4-yl]-5-methyl-pyridazin-3-yl]-5-methyl-phenol]
88 nM | Cc1cc(C)c(-c2nnc(N3CCO[C@H](CO)C3)cc2C)c(O)c1 [Example 112, 2-[6-[(2S)-2-(hydroxymethyl)morpholin-4-yl]-4-methyl-pyridazin-3-yl]-3,5-dimethyl-phenol]
857 nM | Cc1cc(C)c(-c2ccc(N3C[C@@H](O)CO3)nn2)c(O)c1 [Example 113, (4R)-2-[6-(2-hydroxy-4,6-dimethyl-phenyl)pyridazin-3-yl]isoxazolidin-4-ol]
958 nM | Cc1cc(C)c(-c2ccc(N3CC4(CO)CCCC3C4)nn2)c(O)c1 (centres unmarked) [Example 114, 2-[6-[1-(hydroxymethyl)-6-azabicyclo[3.2.1]octan-6-yl]pyridazin-3-yl]-3,5-dimethyl-phenol]
1540 nM | Cc1cc(C)c(-c2ccc(N3CC[C@H]3CO)nn2)c(O)c1 [Example 115, 2-[6-[(2S)-2-(hydroxymethyl)azetidin-1-yl]pyridazin-3-yl]-3,5-dimethyl-phenol]
869 nM | OC[C@@H]1CCN1c1ccc(-c2c(O)cc(Cl)cc2Cl)nn1 [Example 117, 3,5-dichloro-2-[6-[(2S)-2-(hydroxymethyl)azetidin-1-yl]pyridazin-3-yl]phenol]
758 nM | Cc1cc(C)c(-c2ccc(N3CC[C@@H]3CO)nn2)c(O)c1 [Example 118, 2-[6-[(2R)-2-(hydroxymethyl)azetidin-1-yl]pyridazin-3-yl]-3,5-dimethyl-phenol]
